Results as given in PMC4578755, “Development of novel cellular histone-binding and chromatin-displacement assays for bromodomain drug discovery” (Epigenetics & Chromatin, 2015).

Biological target: T1, endogenous TRIM24 in OV90 cells (Homo sapiens, UniProt O15164)
T1 construct: non-transfected OV90 cells looking at endogenous TRIM24; endogenous in cells; host or cells: OV90
T1 sequence (O15164 1-1050): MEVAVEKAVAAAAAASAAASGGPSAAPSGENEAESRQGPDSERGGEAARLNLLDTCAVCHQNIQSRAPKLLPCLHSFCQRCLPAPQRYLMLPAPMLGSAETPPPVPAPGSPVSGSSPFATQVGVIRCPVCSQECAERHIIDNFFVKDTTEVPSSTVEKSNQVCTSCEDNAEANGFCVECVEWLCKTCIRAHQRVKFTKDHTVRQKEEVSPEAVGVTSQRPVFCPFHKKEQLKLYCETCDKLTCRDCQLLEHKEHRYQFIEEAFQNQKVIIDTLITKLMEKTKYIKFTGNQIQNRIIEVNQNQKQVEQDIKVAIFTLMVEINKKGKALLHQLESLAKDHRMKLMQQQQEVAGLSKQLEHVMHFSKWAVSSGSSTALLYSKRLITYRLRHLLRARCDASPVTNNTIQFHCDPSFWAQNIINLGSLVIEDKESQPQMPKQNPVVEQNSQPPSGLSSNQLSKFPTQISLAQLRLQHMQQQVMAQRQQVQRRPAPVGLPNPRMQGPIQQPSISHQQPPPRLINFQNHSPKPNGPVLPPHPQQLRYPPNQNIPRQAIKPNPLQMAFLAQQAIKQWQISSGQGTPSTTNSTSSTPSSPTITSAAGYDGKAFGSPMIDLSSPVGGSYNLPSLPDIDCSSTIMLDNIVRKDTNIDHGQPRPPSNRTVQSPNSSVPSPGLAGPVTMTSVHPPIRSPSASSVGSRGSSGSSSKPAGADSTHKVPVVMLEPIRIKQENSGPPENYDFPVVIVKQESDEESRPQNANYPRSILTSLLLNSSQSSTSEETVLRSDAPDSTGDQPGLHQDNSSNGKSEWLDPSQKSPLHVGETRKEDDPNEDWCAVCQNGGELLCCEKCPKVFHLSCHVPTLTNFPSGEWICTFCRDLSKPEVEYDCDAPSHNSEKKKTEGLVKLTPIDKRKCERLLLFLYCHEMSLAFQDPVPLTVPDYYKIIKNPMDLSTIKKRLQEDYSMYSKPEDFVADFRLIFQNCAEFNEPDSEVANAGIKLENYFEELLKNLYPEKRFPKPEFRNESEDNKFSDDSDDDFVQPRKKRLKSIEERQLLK
Assay: In situ cell extraction with IF in OV90 cells
Format: cell-based
Procedure: OV90 or HeLa cells (20,000 cells/100 µL) were seeded into 96-well plates (Corning Costar #3603) using RPMI or DMEM medium, respectively, supplemented with 10 % FBS and grown overnight. Test agents were serially diluted in DMSO (with or without SAHA) to generate 10X master compound plates. From here, 11 µL was transferred into each well containing 100 µL of growth media followed by shaking on a rotation table (15 min, 300 rpm at RT) and incubation at 37 °C for 2 h. Plates were washed once with PBS (150 µL/well) and then with cold, freshly prepared Cytoskeleton (CSK) Buffer (10 mM PIPES, 300 mM Sucrose, 100 mM NaCl, 3 mM MgCl2; pH = 6.8). Immediately thereafter, soluble, non-chromatin-bound proteins were extracted by addition of cold CSK Buffer supplemented with 0.5 % Triton X-100 (150 µL per well) for 10 min at 4 °C followed by 4 % paraformaldehyde fixation (10 min at RT) (Additional file 1: Table S3).
Standard IF procedures were used. Briefly, cells were permeabilized (0.5 % Triton X-100 in PBS) for 15 min and incubated with blocking solution (DAKO #X0909) for 30 min. The following primary antibodies were used: goat anti-V5 (Bethyl #A190-119A) 1:200; mouse anti-FLAG (Sigma #F1804) 1:200; rabbit anti-BRD4 (Abcam #ab128874) 1:200; rabbit anti-TRIM24 (Proteintech #14208-1-AP) 1:400; rabbit anti-K3K23Ac (Cell Signaling #8848) 1:200, and mouse anti-histone H3 (Active Motif #39763) 1:4000. Alexa Fluor-conjugated secondary antibodies were from Invitrogen and Hoechst 33342 (Invitrogen, #H3570) was used for nuclei counterstaining (10 µg/ml). For each Alexa fluorochrome, images (4–10 fields per well; 20X magnifications) were acquired using the Operetta High-Content Screening System (PerkinElmer). Image analysis was performed in Harmony software (PerkinElmer) by selecting nuclei and cytoplasm in Hoechst channel. Gating for single cells of flat morphology was done based on nuclei area, roundness and intensity of Hoechst in the nucleus and in the cytoplasm. In every gated cell, the mean signal intensity value for each fluorochrome was calculated separately in nucleus and cytoplasm. The specific nuclear signal was estimated subtracting mean cytoplasmic value from nuclear; and average value was calculated using at least 1000 cells in each well.
Supplemental Table S3 (Zhan et al.)
Table S3. In Situ Cell Extraction Procedure (IF)
Step Parameter Solution Volume Time Temp (°C)
Seed cells DMEM supplemented with 10 % FBS 37°C,
2 SAHA treatment SAHA (50 µM) in DMEM with 10% FBS 12 µL 2h 37°C,
3 Prepare Master 100X final concentration in assay 30 µL […]
Image analysis: The analysis was performed in Harmony (PerkinElmer) software by selecting nuclei and cytoplasm in Hoechst 33342 channel . […] For each channel “mean nuclear signal“ was calculated as “mean […]

Compound	Histone H3 protein levels (OV90, 10 µM, 2 h)	Chromatin binding of endogenous TRIM24 (OV90 cells)	Time to displacement of endogenous TRIM24 from chromatin (non-transfected OV90 cells) [min]	Mean IF nuclei intensity of endogenous TRIM24 (OV90, SAHA treatment)
Cc1nc(S(=O)(=O)Nc2cc3c(cc2Oc2cccc(OCC(C)C)c2)n(C)c(=O)n3C)cn1C [IACS-6558, N-{1,3-dimethyl-6-[3-(2-methylpropoxy)phenoxy]-2-oxo-2,3-dihydro-1H-1,3-benzodiazol-5-yl}-1,2-dimethyl-1H-imidazole-4-sulfonamide]	unchanged	readily reduced	≤ 5	–
O=C(CCCCCCC(=O)Nc1ccccc1)NO [SAHA, Suberoylanilide Hydroxamic Acid]	–	–	–	did not change
